Assay results taken from patent US6875451B2, “Compositions and methods for the treatment of primary and metastatic neoplastic diseases using arsenic compounds” (PolaRx Biopharmaceuticals Inc., priority 1997, dated 2005).

How the values were obtained:
[1] = test system: refractory APL; settings: 14 of 15 patients with refractory APL; intravenous 10 mg/day for 4-9 weeks; cited from earlier work
[2] = test system: OVCAR-3; test: SRB growth assay, 6 days exposure, ovarian cancer; format: cell-based; settings: OVCAR-3, 6 days
Protocol: (§1) Arsenic trioxide (1 mg/ml, 10 mg/ampoule, manufactured by Taylor Pharmaceuticals, Decatur, Ill.) was tested at five concentrations each at 10-fold dilutions, i.e., 10^−5, 10^−6, 10^−7, 10^−8 and 10^−9 μg/ml.
(§2) The in vitro tests were performed by incubating the test cells in the presence of the indicated concentration of arsenic trioxide under standard culture conditions for a designated period of time, which is followed by a sulforhodamine B (SRB) protein assay to estimate cell viability or growth. The cell lines are organized into subpanels according to the origin of the cell lines, e.g., leukemia, breast cancer, etc. A description of the cell lines and method of testing is described in Monk et al. (1997, Anticancer Drug Des. 12:533-41) and Weinstein et al., (1997, Science 275:343-9), which are incorporated herein in their entirety.
(§3) The measurement of an effect is expressed in Percentage Growth (PG). The measured effect of the compound on a cell line is calculated according to one or the other of the following two expressions: If (Mean ODtest−Mean ODzero)≧0. then PG=100×(Mean ODtest−Mean ODzero)/(Mean ODctrl−Mean ODzero) If (Mean ODtest−Mean ODzero)<0. then PG=100×(Mean ODtest−Mean ODzero)/(Mean ODzero where: • Mean ODzero=the average of optical density measurements of SRB-derived color just before exposure of cells to the test compounds; • Mean ODtest=the average of optical density measurements of SRB-derived color after exposure of cells to the test compound for a designated period of time; and • Mean ODctrl=the average of optical density measurements of SRB-derived color after with no exposure of cells to the test compound for a designated period of time
(§4) The first two columns describe the subpanel (e.g., leukemia) and cell line (e.g., CCRF-CEM) involved. The next two columns list the Mean ODzero and Mean ODctrl; the next five columns list the Mean ODtest for each of five different concentrations. Each concentration is expressed as the log10 (molar or μg/ml). The next five columns list the calculated PGs for each concentration. The response parameters GI50, TGI and LC50 are interpolated values representing the concentrations at which the PG is +50, 0, and −50, respectively. Sometimes these response parameters cannot be obtained by interpolation. If, for instance, all of the PGs in a given row exceed +50, then none of the three parameters can be obtained by interpolation. In such a case, the value given for each response parameter is the highest concentration tested and is preceded by a “>” sign. This practice is extended similarly to the other possible situations where a response parameter cannot be obtained by interpolation.
(§5) In the first set, the cells from 56 different cancer cell lines were exposed to five concentrations of arsenic trioxide continuously for two days prior to performing the SRB assay. In the second set, the cells from 50 different cell lines (a subset of the first 56 cell lines, plus the renal cancer cell line 786-0) were exposed continuously for six days prior to the SRB assay.

[3] = test system: OVCAR-5; test: SRB growth assay, 6 days exposure, ovarian cancer; format: cell-based; settings: OVCAR-5, 6 days
Protocol: as §1, §2, §3, §4, §5

[4] = test system: 56 different cancer cell lines; test: NCI cancer cell line panel, SRB assay, first set, 2 days exposure (whole panel, mean graph); format: cell-based
Protocol: as §1, §2, §3
The first two columns describe the subpanel (e.g., leukemia) and cell line (e.g., CCRF-CEM) involved. The next two columns list the Mean ODzero and Mean ODctrl; the next five columns list the Mean ODtest for each of five different concentrations. Each concentration is expressed as the log10 (molar or μg/ml). The next five columns list the calculated PGs for each concentration. […]

[5] = test system: SN12C; test: SRB growth assay, 2 days exposure, renal cancer; format: cell-based
Protocol: as §1, §2, §3, §4, §5

[6] = test system: UO-31; test: SRB growth assay, 2 days exposure, renal cancer; format: cell-based
Protocol: as §1, §2, §3, §4, §5

[7] = test system: CAKI-1; test: SRB growth assay, 2 days exposure, renal cancer; format: cell-based
Protocol: as §1, §2, §3, §4, §5

[8] = test system: A498; test: SRB growth assay, 2 days exposure, renal cancer; format: cell-based
Protocol: as §1, §2, §3, §4, §5

[9] = test system: RXE 393; test: SRB growth assay, 2 days exposure, renal cancer; format: cell-based
Protocol: as §1, §2, §3, §4, §5

[10] = test system: TX-10; test: SRB growth assay, 2 days exposure, renal cancer; format: cell-based
Protocol: as §1, §2, §3, §4, §5

arsenic trioxide
clinical efficacy [1]: complete morphologic remission without associated bone marrow suppression
TGI [2]: 2.36E−06
Mean Optical Densities ([2]; Log 10 Concentration −4.9): 0.001
Percent Growth ([2]; Log 10 Concentration −4.9): −99%
Mean Optical Densities ([2]; Log 10 Concentration −5.9): 0.482
Percent Growth ([2]; Log 10 Concentration −5.9): 37%
Mean Optical Densities ([2]; Log 10 Concentration −6.9): 1.124
Percent Growth ([2]; Log 10 Concentration −6.9): 97%
Mean Optical Densities ([2]; Log 10 Concentration −7.9): 1.128
Percent Growth ([2]; Log 10 Concentration −7.9): 98%
Mean Optical Densities ([2]; Log 10 Concentration −8.9): 1.047
Percent Growth ([2]; Log 10 Concentration −8.9): 90%
TGI [3]: 7.53E−06
Mean Optical Densities ([3]; Log 10 Concentration −4.9): 0.028
Percent Growth ([3]; Log 10 Concentration −4.9): −26%
Mean Optical Densities ([3]; Log 10 Concentration −5.9): 1.287
Percent Growth ([3]; Log 10 Concentration −5.9): 91%
Mean Optical Densities ([3]; Log 10 Concentration −6.9): 1.478
Percent Growth ([3]; Log 10 Concentration −6.9): 105%
Mean Optical Densities ([3]; Log 10 Concentration −7.9): 1.460
Percent Growth ([3]; Log 10 Concentration −7.9): 104%
Mean Optical Densities ([3]; Log 10 Concentration −8.9): 1.433
Percent Growth ([3]; Log 10 Concentration −8.9): 102%
CC50 ([3]; read-out: LC50 (the source's name)): > 12.6 µM
reducing cell growth ([4]; first set of tests, 2 days exposure, all cell lines tested): effective in reducing cell growth against almost all the cell lines tested
reduction of growth ([4]; leukemic, melanoma and ovarian cancer cell lines, 2 days exposure): more than 50%
sensitivity relative to all the cell lines tested (mean graph, FIG. 2) ([4]; most leukemic and melanoma cell lines, SNB-75, U251, PC-3, A498, CAKI-1, SN12C, NCI-H522, 2 days): especially sensitive
TGI [5]: 0.00696 ng/mL
Percent Growth ([5]; log10 conc −4.9): −28%
Percent Growth ([5]; log10 conc −5.9): 81%
Percent Growth ([5]; log10 conc −6.9): 88%
Percent Growth ([5]; log10 conc −7.9): 96%
Percent Growth ([5]; log10 conc −8.9): 97%
TGI [6]: >0.0126 ng/mL
Percent Growth ([6]; log10 conc −4.9): 42%
Percent Growth ([6]; log10 conc −5.9): 103%
Percent Growth ([6]; log10 conc −6.9): 110%
Percent Growth ([6]; log10 conc −7.9): 108%
Percent Growth ([6]; log10 conc −8.9): 105%
TGI [7]: 0.00913 ng/mL
Percent Growth ([7]; log10 conc −4.9): −13%
Percent Growth ([7]; log10 conc −5.9): 78%
Percent Growth ([7]; log10 conc −6.9): 128%
Percent Growth ([7]; log10 conc −7.9): 103%
Percent Growth ([7]; log10 conc −8.9): 120%
TGI [8]: 0.00971 ng/mL
Percent Growth ([8]; log10 conc −4.9): −11%
Percent Growth ([8]; log10 conc −5.9): 84%
Percent Growth ([8]; log10 conc −6.9): 89%
Percent Growth ([8]; log10 conc −7.9): 93%
Percent Growth ([8]; log10 conc −8.9): 105%
TGI [9]: >0.0126 ng/mL
Percent Growth ([9]; log10 conc −4.9): 7%
Percent Growth ([9]; log10 conc −5.9): 67%
Percent Growth ([9]; log10 conc −6.9): 109%
Percent Growth ([9]; log10 conc −7.9): 74%
Percent Growth ([9]; log10 conc −8.9): 23%
TGI [10]: >0.0126 ng/mL
Percent Growth ([10]; log10 conc −4.9): 55%
Percent Growth ([10]; log10 conc −5.9): 96%
Percent Growth ([10]; log10 conc −6.9): 102%
Percent Growth ([10]; log10 conc −7.9): 96%
Percent Growth ([10]; log10 conc −8.9): 98%
